Reference: PubChem BioAssay (NCI)
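Method: 48-hour compound exposure of cells in 96-well plates, five concentrations, linear interpolation of endpoints. GI50: concentration for 50% inhibition of growth. At the TGI there is no net growth.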

What was measured:
Experiment in all cases: NCI-60 cell line screen, 48 h
A498 renal = tested on: A498 renal
SF-268 CNS = tested on: SF-268 CNS
HL-60(TB) leukemia = tested on: HL-60(TB) leukemia
UACC-62 melanoma = tested on: UACC-62 melanoma
SNB-19 CNS = tested on: SNB-19 CNS
HCC-2998 colon = tested on: HCC-2998 colon
SW-620 colon = tested on: SW-620 colon
786-0 renal = tested on: 786-0 renal
CCRF-CEM leukemia = tested on: CCRF-CEM leukemia
PC-3 prostate = tested on: PC-3 prostate

| SMILES | TGI (A498 renal) [µM] | TGI (SF-268 CNS) [µM] | TGI (HL-60(TB) leukemia) [µM] | TGI (UACC-62 melanoma) [µM] | TGI (SNB-19 CNS) [µM] | TGI (HCC-2998 colon) [µM] | TGI (SW-620 colon) [µM] | TGI (786-0 renal) [µM] | TGI (CCRF-CEM leukemia) [µM] | TGI (PC-3 prostate) [µM] | GI50 (A498 renal) [µM] | GI50 (SF-268 CNS) [µM] | GI50 (HL-60(TB) leukemia) [nM] | GI50 (UACC-62 melanoma) [nM] | GI50 (SNB-19 CNS) [µM] | GI50 (HCC-2998 colon) [µM] | GI50 (SW-620 colon) [µM] | GI50 (786-0 renal) [µM] | GI50 (PC-3 prostate) [µM] | GI50 (CCRF-CEM leukemia) [nM] |
| --- | --- | --- | --- | --- | --- | --- | --- | --- | --- | --- | --- | --- | --- | --- | --- | --- | --- | --- | --- | --- |
| Cc1nn2c(=O)n(-c3cccc(-n4nnc5c(-c6ccccc6)c(C)nn5c4=O)c3C)nnc2c1-c1ccccc1 | > 100 | > 100 | 87.9 | > 100 | > 100 | 55.8 | 48.4 | > 100 | > 100 |  |  |  |  |  |  |  |  |  |  |  |
| O=C1C=CC(=O)c2c1cc1ccccc1c2O | 28.8 | 29.2 |  | 20 | 35.9 | 32.8 | 3.59 | 18.7 | 5.91 | 19.1 |  |  |  |  |  |  |  |  |  |  |
| O=S1c2ccccc2N=C(c2ccc3ccccc3c2)CC1c1ccccc1F (configuration not stated) | 79.7 | > 100 | > 100 | > 100 | > 100 | > 100 | > 100 | > 100 | > 100 |  |  |  |  |  |  |  |  |  |  |  |
| c1cc2ccc3cc2cc1CNCCOCCNCc1ccc2ccc(cc2c1)CNCCOCCNC3 | > 100 | > 100 | > 100 | > 100 | > 100 | > 100 | > 100 | > 100 |  |  | > 100 | > 100 | > 100000 | > 100000 | > 100 | > 100 | > 100 | > 100 |  |  |
| NC(=O)c1ccccc1NC(=O)C(=O)Nc1n[nH]c(N)n1 | > 100 |  | > 100 | > 100 | > 100 | > 100 | > 100 | > 100 | > 100 |  |  |  |  |  |  |  |  |  |  |  |
| CC(N)CN.CC(N)CN.[Cl-].[O]=[Os+2]=[O] (configuration not stated) |  | > 100 |  | > 100 | > 100 | > 100 | > 100 | > 100 |  |  |  | 77.3 |  | > 100000 | > 100 | > 100 | 69 | 64.5 |  |  |
| COc1cccc(C(C#N)NC23CC4CC(CC(C4)C2)C3)c1 (configuration not stated) |  | > 100 | > 100 | > 100 | > 100 | > 100 | > 100 | > 100 | > 100 | > 100 |  |  |  |  |  |  |  |  |  |  |
| COc1ccc(C2c3cc4c(c(OC)c3CC3OCC(=O)C32)OCO4)cc1OC (configuration not stated) | > 100 | > 100 | < 0.01 | > 100 | > 100 |  | > 100 | > 100 | < 0.01 | > 100 | < 0.01 | < 0.01 |  | < 10 | < 0.01 |  | < 0.01 | < 0.01 | < 0.01 | < 10 |
| CN(C(=O)C12C3C4C1C1C2C3C41C(=O)N(C)C(C)(C)C)C(C)(C)C (configuration not stated) | > 50 | > 50 | > 50 | > 50 | > 50 | > 50 | > 50 | > 50 | > 50 |  |  |  |  |  |  |  |  |  |  |  |
| O=c1c2cc(Br)ccc2[nH]c(=S)n1-c1ccccc1 | > 100 | > 100 |  | > 100 | > 100 | > 100 | > 100 | > 100 | > 100 |  |  |  |  |  |  |  |  |  |  |  |
| O=C(O)/C(=C/c1ccccc1[N+](=O)[O-])c1cccs1 | > 100 | > 100 | > 100 | > 100 | > 100 | > 100 | > 100 | > 100 |  |  |  |  |  |  |  |  |  |  |  |  |
| COc1ccc(-c2nnc(Nc3nc(O)c(C4=c5cc(OC(F)(F)F)ccc5=NC4=O)s3)o2)cc1 |  | > 100 | 47.7 | 29.5 | 31.2 | 28.6 | > 100 | 24.3 | 51.1 | 57.5 |  | > 100 | 26600 | 15100 | 9.67 | 13.4 | 38.2 | 11.2 | 19.9 | 25500 |
| CCOc1ccc(/C=N\N2C(=O)c3ccccc3C2=O)cc1 | > 100 | > 100 | > 100 | > 100 | > 100 | > 100 | > 100 | > 100 | > 100 |  |  |  |  |  |  |  |  |  |  |  |
| CC1(C)C(=O)CCC(=O)C(C)(C)C2=CC=C(O2)C(C)(C)C(=O)CCC(=O)C(C)(C)C2=CC=C1O2 | > 100 | > 100 | > 100 |  | > 100 | > 100 | > 100 | > 100 | > 100 |  |  |  |  |  |  |  |  |  |  |  |
| C/C(=C\CCc1ccsc1)CC/C=C(\C)CCCN1CCN(CCO)CC1 | 7.51 | 19.8 | 4.14 | 3.75 | 21 | 3.63 | 4.29 | 5.35 | 6.51 |  | 2.45 | 5.44 | 2010 | 1730 | 4.4 | 1.97 | 1.93 | 2.27 |  | 2280 |
| O=S(=O)(CC(O)C(Cl)(Cl)Cl)NNc1ccccc1 (configuration not stated) | > 100 | > 100 | > 100 | > 100 | > 100 |  | > 100 | > 100 | > 100 | > 100 |  |  |  |  |  |  |  |  |  |  |
| CCN1CCN(CC(=O)Nc2nc3ccc(NCc4ccc(C)cc4)cc3s2)CC1 | 11.3 | 16.5 | 2.25 | 2.06 | 13.5 | 14.6 | 6.07 | 10.9 | 6.3 |  | 5.27 | 5.76 | 1050 | 1010 | 5.98 | 6.5 | 1.6 | 4.24 |  | 1490 |
| O=C(O)CN(CC(=O)O)c1ccccc1 | > 100 | > 100 | > 100 | > 100 | > 100 |  | > 100 | > 100 | 83.7 | > 100 |  |  |  |  |  |  |  |  |  |  |
| CC(C)(C)C1CCC(CI)(N=[N+]=[N-])CC1 (configuration not stated) | > 100 | > 100 | > 100 | > 100 | > 100 | > 100 | > 100 | > 100 | > 100 |  |  |  |  |  |  |  |  |  |  |  |
